Measurements published in patent publication US20090304823A1, “NUTRITIONAL COMPOSITIONS FOR PROMOTION OF BONE GROWTH AND MAINTENANCE OF BONE HEALTH AND METHODS REGARDING SAME” (NESTEC S.A., priority 2006, published 2009).

What was measured:
BMP-2 = BMP-2 gene reporter assay (high throughput screen); assay type: cell-based
Protocol: BMP-2 gene reporter assay (high throughput screen) (i) BMP-2 high throughput gene reporter assay of non-hydrolyzed MeOH/H2O extracts (1a) and corresponding glycosidase hydrolyzed extract in ethyl acetate (1b). Extracts were tested twice at concentrations of 1 to 100 μg/ml, diluted in culture medium from plant extract stocks prepared as 50 mg/ml in DMSO. (ii) Extracts positive in the BMP-2 screen were prepared de novo and screened again with dose-response to confirm as “hits”. (iii) BMP-2 testing of subfractionation of positives/hits and candidate pure compounds

osteoblast cells = assay: Alkaline phosphatase assay in osteoblast cells (osteoblast differentiation); assay type: cell-based
OPG/RANKL = assay: Osteoblast/osteoclast co-culture system, cytokine regulation; assay type: cell-based
Protocol: For example, at least 3 phenolics (e.g. eupafolin, carnosol, scutellarein) may contribute to the anabolic potential of the rosemary extract. Additional phenolics of rosemary include genkwanin, kaempferol, acacetin. The rosemary plant extracts and pure compounds were tested in an osteoblast/osteoclast co-culture system.

[1] = test system: neonatal murine calvarial bones; assay: Calvaria organ culture in vitro, bone formation; assay type: cell-based
Protocol: (v) Final injection in vivo of “hit” extract into mouse calvaria bones and monitoring of bone area and thickness. Extracts were assessed in a 4-day in vitro neonatal murine calvarial assay. Bones were incubated with the extracts for the entire 4 days.

NQO1 = NQO1 induction, immunoblot of hPOBtert cell extracts; assay type: cell-based, human; conditions: hPOBtert cells; FIG. 11
Protocol: Preparation of cytoplasmic extracts—hPOBtert cells were washed two times with cold phosphate-buffered saline and harvested with lysis buffer (1% Triton X-100, 20 mM Tris/HCL pH 8, 137 mM Nacl, 10% Glycerol, 2 mM EDTA pH 8, and freshly added proteinase inhibitors: 1 mM phenylmethylsulfonylfluoride, 0.15 U/ml Aprotinin, 10 μg/ml Leupeptide and 10 μg/ml Pepstatin). The samples were centrifuged at 13000 rpm, 4° C. for 5 min and the supernatant transferred to a fresh tube. The protein concentration was determined using the BioRad protein assay. Approximately 50 μg of each sample were mixed with a suitable volume of sample buffer, denatured for 5 min at 95° C. together with 5 μl protein standard, chilled on ice, and loaded on a 10% ready gel, and submitted to immunoblot analysis using anti-NQO1 antibodies.
Immunoblotting—50 μg of protein cell lysate were resolved by SDS-PAGE. After electrophoresis, proteins were transferred to a PVDF membrane (Invitrogen) according to the manufacturer's protocol. Membranes probed for OPN and NQO1 were blocked and probed in 5% milk in Tris-buffered saline/Tween (20 mM Tris base, pH 7.6, 137 mM, 0.1% Tween 20). The blots were visualised by chemiluminescence development, Western blotting detection system (Amersham Biosciences).
Antibodies—The NQO1 (sc-16464)-specific antibodies were purchased from Santa Cruz Biotechnologies Inc (Santa Cruz, Calif.). […]

Osteopontin (OPN) mRNA = assay: OPN mRNA induction by real-time PCR in hPOBtert osteoblasts; assay type: cell-based, human; conditions: hPOBtert cells, 48 h; FIG. 10
Protocol: Cell culture—HPOBTert osteoblasts were seeded on collagen-coated plates and grown in MEM Eagle α Modification medium supplemented with 10% fetal bovine serum, 1% L-glutamine and penicillin/streptomycin, 1 mM β-glycerolphosphate and 50 μg/ml ascorbic acid in a humidified atmosphere of 5% CO2, and 95% air at 37° C. When carnosol and inhibitors were added, an equivalent amount of Me2SO was used as a vehicle control. Analysis of mRNA levels by Real-Time PCR—Total cellular RNA was extracted using the NucleoSpin RNA II kit (Macherey-Nagel, Switzerland). Equal amounts (1 μg) of RNA from the different treatments were reverse-transcribed using the First Strand cDNA Synthesis kit for RT-PCR (Roche, Mannheim, Germany). For each sample, 2 μl 10× reaction buffer, 4 μl 25 mM MgCl2, 2 μl nucleotide mix, 2 μl random primers, 1 μl RNAse inhibitor and 0.4 μl AMV reverse transcriptase from the kit were added to the sample. The reverse transcriptase was performed at the following thermal cycling conditions (25° C. for 10 min, 42 C for 60 min, and 75° C. for 5 min) using the PTC-100TM Concept, Switzerland). Real-time Quantitative PCR—Quantitative PCR was performed in 25 μl in triplicates. This consisted of 12.5 μl of Taqman 2× Universal PCR Master Mix, 1.25 μl Assay-on-Demand primers and probes (Applied Biosystems, USA) and 6.25 μl RNAse free water. […]

[2] = test system: bovine articular cartilage explants; assay: Cytokine-induced collagen degradation in articular cartilage explants; assay type: cell-based; conditions: 1 or 5 μM; FIG. 9C
Excerpt: (vii) Effects on cytokine-induced type II collagen degradation, MMP-mediated aggrecan degradation and aggrecanase-mediated degradation in bovine articular cartilage explants.
We investigated here whether 2 different rosemary extracts and carnosol, one of the main components of this extract, could inhibit the degradation of collagen and aggrecan in cultured explants of articular cartilage. Explants from healthy bovine articular cartilage were put in culture. However, such explants naturally display a very low catabolic activity which is not ideal to test the anti-catabolic activity of potential bioactives. To improve the sensitivity of the assay, the explants are cultured in presence of 2 pro-inflammatory cytokines, TNF-α and oncostatin known to act together as potent inducers of MMP and aggrecanase activities.

## COc1ccc(-c2cc(=O)c3c(O)cc(O)cc3o2)cc1 [Acacetin]
BMP-2; 5-10 μM
  BMP-2 induction: 3-5X
Osteoblast cells; 5-10 μM
  ALP activity induction: 2X

## COc1c(O)cc2oc(-c3ccc(O)c(O)c3)cc(=O)c2c1O [Eupafolin]
OPG/RANKL
  regulation of the key cytokines controlling bone remodelling, OPG/RANKL: activity for regulation
BMP-2; 2.5-10 μM
  BMP-2 induction: 3-8X
Osteoblast cells; 5 μM
  ALP activity induction: 2 X
Osteoblast cells; 10 μM
  ALP activity induction: 4 X

## O=c1cc(-c2ccc(O)cc2)oc2cc(O)c(O)c(O)c12 [IX, Scutellarein]
BMP-2; 5, 10 μM
  BMP-2 induction: 3-4X
Osteoblast cells; 10 μM
  ALP activity induction: 2X

## O=c1c(O)c(-c2ccc(O)cc2)oc2cc(O)cc(O)c12 [Kaempferol]
BMP-2; 1-10 μM
  BMP-2 induction: 2.5X
Osteoblast cells; 2.5-10 μM
  ALP activity induction: 2-4X
[1]; 10 μM
  Bone formation in organ culture: Slight at 10 μM

## COc1cc(O)c2c(=O)cc(-c3ccc(O)cc3)oc2c1 [V, Genkwanin]
BMP-2; 5 μM
  BMP-2 induction: 4X
Osteoblast cells; 10 μM
  ALP activity induction: 1.5X

## CC(C)c1cc2c(c(O)c1O)[C@@]13CCCC(C)(C)[C@@H]1C[C@@H]2OC3=O [VII, Carnosol]
OPG/RANKL
  regulation of the key cytokines controlling bone remodelling, OPG/RANKL: activity for regulation
NQO1
  expression of the phase II enzyme NQO1: induces the expression
BMP-2; 2.5-10 μM
  BMP-2 induction: 4.5-7X
BMP-2; compounds isolated from rosemary extract 2188
  BMP- Activity: YES
Osteopontin (OPN) mRNA
  OPN expression (OPN mRNA levels): induce OPN expression dose-dependently
[2]
  cytokine induced collagen degradation: inhibited
Osteoblast cells; 2.5-10 μM
  ALP activity induction: 2X
[1]; 2.5 μM
  Bone formation in organ culture: Slight BF for 2.5 μM
[1]; 5, 10 μM
  Bone formation in organ culture: Good BF for 5, 10 μM
